Experimental data: patent US4968686A, “Acyclic pyrrolo [2,3-d]pyrimidine analogs as antiviral agents” (The Regents of The University of Michigan, priority 1989, dated 1990)

System: HCMV DNA synthesis
Experiment: HCMV DNA synthesis by dot-blot hybridization
Assay type: cell-based, human cytomegalovirus in HFF cells
Conditions: Human betaherpesvirus 5, read-out: HCMV DNA Synthesis, 50% Inhibitory Concentration
Description: The amount of HCMV DNA synthesis was determined in two types of experiments: (a) as an integral part of HCMV titer (yield) reduction experiments and (b) as separate experiments to determine only the amount of viral DNA synthesis in the absence or presence of test compounds.
HFF cells were planted in 25 cm^2 flasks and infected with HCMV as described in part 2 and incubated at 37° C. Before harvesting at selected times by the addition of 0.1 volume of 0.2M EDTA, an aliquot of medium was removed for determination of HCMV titer. After harvesting cells into the medium, aliquots were retained for determination of HCMV DNA by hybridization.
HFF cells were planted in 96-well cluster plates at 20,000 cell/well in 200 μl of growth medium [MEM(E)] with 1.1 gm/liter NaHCO3 and 10% fetal bovine serum. After incubation in a humidified atmosphere of 4% CO2 -96% air for 1 to 2 days, growth medium was aspirated and the 70% confluent cells were infected at a m.o.i. of 0.5 p.f.u. per cell by addition of HCMV in 100 μl of MEM(E) with 1.1 gm/l liter NaHCO3 and 5% fetal bovine serum (maintenance medium). Following a 1-hour incubation at 37° C. for virus adsorption, 100 μl of selected concentrations of test compounds were added to each of triplicate wells in twice their final concentration of maintenance medium. Usually 3 to 6 concentrations of compounds were tested in 3.2- or 10-fold dilutions along with appropriate triplicate no drug and no virus controls. Plates were incubated for 7 days and harvested by addition of 100 μl of 0.25M EDTA per well. After a 30-minute incubation of 37° C. to free the cells, the contents of the wells were filtered as described below or frozen at -76° C. for subsequent analysis. The following procedure adapted from Gadler, H., Antimicrob. Agents Chemother., 24:370 (1983) was employed for the hybridization portion of the assay:
The contents of each well were removed and filtered through Gene Screen™ (NEN Research Products), presoaked in 10×SSC (1×SSC is 0.15M NaCl, 0.015M NaCitrate), using a 96-well filtration manifold (Schleicher and Schuell). The original microtiter plate wells were rinsed with 200 μl HEPES buffered saline and the contents added to the filter manifold.
The Gene Screen membrane was dried at room temperature and then baked at 80° to 100° C. for 3 to 4 hours. The DNA on the membrane was denatured by placing the membrane (sample side up) sequentially on filter papers soaked in (a) 0.5M NaOH for 30 minutes, (b) 0.1 M NaOH, 1.5M NaCl for 5 minutes, (c) 1M Tris HCl, pH 7.5 twice each for 5 minutes, (d) 0.5M Tris HCl, pH 7.5, 1.5M NaCl for 5 minutes and then dried at room temperature. The membrane was added to a "hybridization bag" and prehybridized at 65° C. for (greater or equal to) 6 hours in 10 ml 0.2% polyvinylpyrrolidone (MW 40,000); 0.2% ficoll (MW 400,000); 0.2% bovine serum albumin; 0.05 M Tris HCl, pH 7.5; 0.1% sodium pyrophosphate; 1M NaCl; 10% dextran sulfate (ME 500,000) and 0.1 mg/ml denatured salmon testes DNA. […]
Following hybridization, the membrane was washed sequentially in 100 ml 2×SSC at room temperature twice each for 5 minutes, 100 ml 2×SCC plus 1% SDS at 65° C. twice each for 30 minutes and then 100 ml 0.1×SSC at room temperature twice each for 30 minutes. The membrane was dried at room temperature and each filtration spot was cut from the membrane and placed into 4 ml of toluene/DPO scintillant and hybridized label counted in a liquid scintillation spectrometer. […]

Row | Structure (SMILES) | IC50
1 | Nc1nc2c(ncn2COCCO)c(=O)[nH]1 [Acyclovir, reference compound] | 35 µM
2 | Nc1nc(O)c2ncn(COC(CO)CO)c2n1 [Ganciclovir (DHPG), reference compound] | 1.1 µM
3 | Nc1ncnc2c1c(Cl)cn2COCCO [UMJD 100, 4-Amino-5-chloro-7-(2-hydroxyethoxymethyl)pyrrolo[2,3-d]-pyrimidine] | 15 µM
4 | Nc1ncnc2c1c(Br)cn2COCCO [UMJD 102, 4-Amino-5-bromo-7-(2-hydroxyethoxymethyl)pyrrolo[2,3-d]-pyrimidine] | 3.2 µM
5 | Nc1ncnc2c1c(I)cn2COCCO [UMJD 104, 4-Amino-5-iodo-7-(2-hydroxyethoxymethyl)pyrrolo[2,3-d]-pyrimidine] | 47 µM
